Test results taken from paper PMC8595762 (Plant Direct, 2021).

Key:
[1] = biological target: T1, ABCB4 (Arabidopsis thaliana, UniProt O80725); assay: whole-cell patch clamp, current magnitude; assay type: cell-based; conditions: activation; IAA in pipette (cytoplasmic side); 50 mM CsCl
T1 sequence (O80725 1-1286): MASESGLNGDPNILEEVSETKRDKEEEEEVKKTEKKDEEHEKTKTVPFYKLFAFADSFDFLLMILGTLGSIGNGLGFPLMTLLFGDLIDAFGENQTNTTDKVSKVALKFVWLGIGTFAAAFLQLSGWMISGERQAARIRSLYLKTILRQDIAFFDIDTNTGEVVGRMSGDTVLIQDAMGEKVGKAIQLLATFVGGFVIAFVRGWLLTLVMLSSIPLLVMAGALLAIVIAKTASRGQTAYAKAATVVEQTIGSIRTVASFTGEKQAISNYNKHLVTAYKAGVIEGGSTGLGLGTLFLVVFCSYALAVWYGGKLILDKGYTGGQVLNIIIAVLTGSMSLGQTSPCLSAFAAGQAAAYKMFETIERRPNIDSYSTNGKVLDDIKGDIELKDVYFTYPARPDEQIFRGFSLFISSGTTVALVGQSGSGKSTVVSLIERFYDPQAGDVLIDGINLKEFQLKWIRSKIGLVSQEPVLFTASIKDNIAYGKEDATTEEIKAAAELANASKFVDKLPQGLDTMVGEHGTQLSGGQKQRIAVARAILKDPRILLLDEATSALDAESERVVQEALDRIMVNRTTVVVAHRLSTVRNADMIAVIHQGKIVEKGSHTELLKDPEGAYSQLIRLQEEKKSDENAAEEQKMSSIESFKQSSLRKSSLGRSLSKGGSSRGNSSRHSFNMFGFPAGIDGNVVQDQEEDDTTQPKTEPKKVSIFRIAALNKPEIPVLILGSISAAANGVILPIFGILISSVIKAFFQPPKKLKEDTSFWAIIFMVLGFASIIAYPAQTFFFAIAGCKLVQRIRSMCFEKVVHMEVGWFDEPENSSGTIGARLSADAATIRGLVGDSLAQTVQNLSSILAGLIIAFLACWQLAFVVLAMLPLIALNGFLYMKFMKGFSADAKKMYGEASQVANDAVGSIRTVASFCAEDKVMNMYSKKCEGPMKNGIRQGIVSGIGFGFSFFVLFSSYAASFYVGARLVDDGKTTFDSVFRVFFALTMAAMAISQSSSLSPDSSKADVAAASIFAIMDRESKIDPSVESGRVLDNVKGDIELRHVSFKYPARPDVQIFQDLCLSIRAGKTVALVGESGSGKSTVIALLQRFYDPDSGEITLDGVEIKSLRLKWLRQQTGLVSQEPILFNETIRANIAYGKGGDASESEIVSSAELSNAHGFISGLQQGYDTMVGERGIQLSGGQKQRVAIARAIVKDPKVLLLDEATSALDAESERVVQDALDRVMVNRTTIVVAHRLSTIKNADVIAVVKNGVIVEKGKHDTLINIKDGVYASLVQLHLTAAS

[2] = biological target: T2, PIN2 (Arabidopsis thaliana, UniProt Q9LU77); assay: whole-cell patch clamp, block of currents; assay type: cell-based; conditions: inhibition; NPPB in bath; auxin-stimulated conditions; 50 mM CsCl
T2 sequence (Q9LU77 1-647): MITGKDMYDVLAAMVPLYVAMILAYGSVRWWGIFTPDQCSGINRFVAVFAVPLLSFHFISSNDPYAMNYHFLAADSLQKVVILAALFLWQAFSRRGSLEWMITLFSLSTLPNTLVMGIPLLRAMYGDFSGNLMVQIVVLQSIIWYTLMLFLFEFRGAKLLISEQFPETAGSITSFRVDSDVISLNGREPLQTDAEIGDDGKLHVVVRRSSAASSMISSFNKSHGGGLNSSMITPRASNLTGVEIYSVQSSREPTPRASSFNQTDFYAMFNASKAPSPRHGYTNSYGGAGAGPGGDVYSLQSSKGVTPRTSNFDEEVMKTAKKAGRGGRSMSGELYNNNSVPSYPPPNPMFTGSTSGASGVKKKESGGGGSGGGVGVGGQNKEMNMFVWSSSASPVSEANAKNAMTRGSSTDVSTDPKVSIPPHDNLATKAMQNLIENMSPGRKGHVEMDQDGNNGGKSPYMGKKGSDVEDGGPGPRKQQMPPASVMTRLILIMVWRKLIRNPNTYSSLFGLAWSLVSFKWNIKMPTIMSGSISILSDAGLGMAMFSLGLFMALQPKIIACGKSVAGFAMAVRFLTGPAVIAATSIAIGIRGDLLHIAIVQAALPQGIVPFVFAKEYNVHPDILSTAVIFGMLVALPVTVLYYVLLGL

Row | Structure (SMILES) | % increase in currents, 0.1 to 1 μM IAA [1] | block at 20 μM [2]
1 | O=C(O)Cc1c[nH]c2ccccc12 [IAA^−] | ~ 30% | –
2 | O=C(O)c1cc([N+](=O)[O-])ccc1NCCCc1ccccc1 [NPPB, 5‐nitro‐2‐(3‐phenylpropylamine)‐benzoic acid] | – | NPPB but not NPA was an effective inhibitor
